Our source for the EC50 values is US20260374751A1, “AMIDE PRODRUGS AND USES THEREOF” (Autobahn Therapeutics, Inc., priority 2022, published 2026).

One experiment concerns the target S1P1 (Homo sapiens, UniProt P21453). Put plainly: S1P1 receptor agonism (EC50 statement). Type of experiment: biochemical.
The target in the next experiment is S1P5 (Homo sapiens, UniProt Q9H228). Put plainly: S1P5 receptor agonism (EC50 statement). In kind it is biochemical.
S1P5, sequence (Q9H228 whole entry, species assumed): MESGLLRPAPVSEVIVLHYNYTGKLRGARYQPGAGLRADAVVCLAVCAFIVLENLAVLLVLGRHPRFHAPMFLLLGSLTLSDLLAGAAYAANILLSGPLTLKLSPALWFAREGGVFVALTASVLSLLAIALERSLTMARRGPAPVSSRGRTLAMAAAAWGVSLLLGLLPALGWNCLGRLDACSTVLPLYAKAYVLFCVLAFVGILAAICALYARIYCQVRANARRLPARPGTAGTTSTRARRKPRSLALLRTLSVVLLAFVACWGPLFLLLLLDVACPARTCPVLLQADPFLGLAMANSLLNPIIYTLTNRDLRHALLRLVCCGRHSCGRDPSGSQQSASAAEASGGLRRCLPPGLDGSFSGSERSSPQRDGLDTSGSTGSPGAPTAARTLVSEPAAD

S1P1, sequence (P21453 whole entry, species assumed): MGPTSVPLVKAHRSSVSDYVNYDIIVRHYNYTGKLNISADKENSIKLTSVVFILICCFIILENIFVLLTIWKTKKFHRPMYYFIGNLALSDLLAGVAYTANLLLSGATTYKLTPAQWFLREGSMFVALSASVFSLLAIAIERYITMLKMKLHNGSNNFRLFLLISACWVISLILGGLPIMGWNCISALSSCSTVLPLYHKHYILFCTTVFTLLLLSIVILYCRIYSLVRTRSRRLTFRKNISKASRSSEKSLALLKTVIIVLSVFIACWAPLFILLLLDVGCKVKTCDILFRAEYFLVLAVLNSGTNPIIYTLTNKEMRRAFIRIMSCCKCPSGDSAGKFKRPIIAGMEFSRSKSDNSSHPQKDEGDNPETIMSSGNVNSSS

The term EC50 denotes the concentration giving half of the maximal effect. Take `CCCc1ccc(COc2ccc3c(c2)CCC(CN2CC(C(=O)O)C2)=C3C)c(OC)c1` [Compound 1, ceralifimod]: the EC50 came to 11.8 nM on S1P1 and 1 nM at S1P5.
